In assay [1] the target is T1, MTHFD1 recombinant human enzyme (Homo sapiens, UniProt P11586).
T1 sequence (P11586 2-291 limits assumed): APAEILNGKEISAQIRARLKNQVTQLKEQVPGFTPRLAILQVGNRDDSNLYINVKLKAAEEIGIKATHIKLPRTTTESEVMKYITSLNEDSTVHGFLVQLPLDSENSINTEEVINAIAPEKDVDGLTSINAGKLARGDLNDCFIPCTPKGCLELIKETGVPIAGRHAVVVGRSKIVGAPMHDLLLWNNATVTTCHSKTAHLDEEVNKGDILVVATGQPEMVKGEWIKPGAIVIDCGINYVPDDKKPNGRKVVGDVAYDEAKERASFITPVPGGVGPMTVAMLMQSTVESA
In words: MTHFD1 inhibition assay (NAD(P)H-Glo luminescence). Particulars: MTHFD1 IC50, recombinant human enzyme 200 nM, NADP, band.

In assay [2] the target is T2, MTHFD2 recombinant human enzyme (Homo sapiens, UniProt P13995).
T2 sequence (P13995 36-350): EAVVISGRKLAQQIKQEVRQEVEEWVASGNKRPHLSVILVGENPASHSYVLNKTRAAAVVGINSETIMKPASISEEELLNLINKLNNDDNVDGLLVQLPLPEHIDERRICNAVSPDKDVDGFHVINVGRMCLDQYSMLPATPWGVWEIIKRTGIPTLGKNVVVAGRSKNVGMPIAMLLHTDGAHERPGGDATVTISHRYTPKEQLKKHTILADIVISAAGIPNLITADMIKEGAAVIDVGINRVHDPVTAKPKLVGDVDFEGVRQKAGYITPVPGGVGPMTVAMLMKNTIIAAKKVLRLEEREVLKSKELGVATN
In words: MTHFD2 inhibition assay (NAD(P)H-Glo luminescence). Particulars: for MTHFD1/MTHFD2 IC50 ratio: selectivity of MTHFD2 inhibition over MTHFD1, band.

Molecules are shown by their SMILES.

Regarding `COC[C@H]1CN(c2ccc3c4c(c(=O)oc3c2C)CN(C(=O)c2cc(Cl)c(C(=O)NS(=O)(=O)C3(C)CC3)c(N3C5CCC3CC5)c2)CC4)CCN1C` [Example 40, (R)-2-(7-azabicyclo[2.2.1]heptan-7-yl)-6-chloro-4-(8-(3-(methoxymethyl)-4-methylpiperazin-1-yl)-7-methyl-5-oxo-1,3,4,5-tetrahydro-2H-chromeno[3,4-c]pyridine-3-carbonyl)-N-((1-methylcyclopropyl)sulfonyl)benzamide], the IC50 (in general, the concentration at which inhibition is half-maximal) in assay [1] lay in the range of 10 to 100 nM. For the same molecule, in assay [2], the IC50 was 1 to 10 nM and the “MTHFD1/MTHFD2 IC50 ratio” value is given as “H (>9.0 to 30)”.
Taken in the same sequence, the figures for `COC[C@H]1CN(c2cc(C)c3c4c(c(=O)oc3c2C)CN(C(=O)c2ccc(C(=O)NS(=O)(=O)N(C)C)c(OC3CCC3)c2C)CC4)CCN1C` [Example 179] were 100 to 1000 nM, 10 to 100 nM and “G (^ 3 to 9.0)”.
On to `COC[C@H]1CN(c2cc(Cl)c3c4c(c(=O)oc3c2C)CN(C(=O)c2cc(OC3CC3)c(C(=O)NS(=O)(=O)N3C5CCC3COC5)cc2F)CC4)CCN1C` [Example 307, N-((3-oxa-8-azabicyclo[3.2.1]octan-8-yl)sulfonyl)-4-(10-chloro-8-((R)-3-(methoxymethyl)-4-methylpiperazin-1-yl)-7-methyl-5-oxo-1,3,4,5-tetrahydro-2H-chromeno[3,4-c]pyridine-3-carbonyl)-2-cyclopropoxy-5-fluorobenzamide], for which the IC50 was in the range of 1000 to 5000 nM in assay [1] and 10 to 100 nM in assay [2].
As for `COC[C@H]1CN(c2ccc3c4c(c(=O)oc3c2C)CN(C(=O)c2cc(OC3CCCC3)c(C(=O)NS(=O)(=O)C3(C)CC3)c(C(F)(F)F)c2)CC4)CCN1C` [Example 101, (R)-2-(cyclopentyloxy)-4-(8-(3-(methoxymethyl)-4-methylpiperazin-1-yl)-7-methyl-5-oxo-1,3,4,5-tetrahydro-2H-chromeno[3,4-c]pyridine-3-carbonyl)-N-((1-methylcyclopropyl)sulfonyl)-6-(trifluoromethyl)benzamide], the IC50 in assay [1] is 1000 to 5000 nM. In addition, in assay [2], the IC50 lay within 100 to 1000 nM and the “MTHFD1/MTHFD2 IC50 ratio” value was “H (>9.0 to 30)”.
Taken in the same sequence, the figures for `COC[C@H]1CN(c2cc(C)c3c4c(c(=O)oc3c2C)CN(C(=O)c2ccc(C(=O)NS(=O)(=O)C3(C)CC3)c(N3CC5CC5C3)c2)CC4)CCN1C` (stereo partly drawn) [Example 46, 2-(3-azabicyclo[3.1.0]hexan-3-yl)-4-(8-((R)-3-(methoxymethyl)-4-methylpiperazin-1-yl)-7,10-dimethyl-5-oxo-1,3,4,5-tetrahydro-2H-chromeno[3,4-c]pyridine-3-carbonyl)-N-((1-methylcyclopropyl)sulfonyl)benzamide] were 10 to 100 nM, 1 to 10 nM and “H (>9.0 to 30)”.
For `COC[C@H]1CN(c2cc(C)c3c4c(c(=O)oc3c2C)CN(C(=O)c2ccc(C(=O)NS(=O)(=O)N3CCCC3)c(OC3C5CC6CC(C5)CC3C6)c2F)CC4)CCN1C` (stereo partly drawn) [Example 94, 2-((adamantan-2-yl)oxy)-3-fluoro-4-(8-((R)-3-(methoxymethyl)-4-methylpiperazin-1-yl)-7,10-dimethyl-5-oxo-1,3,4,5-tetrahydro-2H-chromeno[3,4-c]pyridine-3-carbonyl)-N-(pyrrolidin-1-ylsulfonyl)benzamide] the same measures were 10 to 100 nM, 10 to 100 nM and “F (<3)”.
For `COC[C@H]1CN(c2cc(C)c3c4c(c(=O)oc3c2C)CN(C(=O)c2ccc(C(=O)NS(=O)(=O)C3(C)CC3)c(OC3CCC(F)(F)CC3)c2F)CC4)CCN1C` [Example 86, (R)-2-((4,4-difluorocyclohexyl)oxy)-3-fluoro-4-(8-(3-(methoxymethyl)-4-methylpiperazin-1-yl)-7,10-dimethyl-5-oxo-1,3,4,5-tetrahydro-2H-chromeno[3,4-c]pyridine-3-carbonyl)-N-((1-methylcyclopropyl)sulfonyl)benzamide] the same measures were 10 to 100 nM, 10 to 100 nM and “F (<3)”.

The record behind these values is US12662489B2 (Sitryx Therapeutics Limited, priority 2023, dated 2026).
